As usually defined, the IC50 is the concentration at which inhibition is half-maximal.

The target of the assay is T1, human KCNK13 (Homo sapiens, UniProt Q9HB14).
T1 construct: expressed in transfected cells
T1 sequence (Q9HB14 1-408): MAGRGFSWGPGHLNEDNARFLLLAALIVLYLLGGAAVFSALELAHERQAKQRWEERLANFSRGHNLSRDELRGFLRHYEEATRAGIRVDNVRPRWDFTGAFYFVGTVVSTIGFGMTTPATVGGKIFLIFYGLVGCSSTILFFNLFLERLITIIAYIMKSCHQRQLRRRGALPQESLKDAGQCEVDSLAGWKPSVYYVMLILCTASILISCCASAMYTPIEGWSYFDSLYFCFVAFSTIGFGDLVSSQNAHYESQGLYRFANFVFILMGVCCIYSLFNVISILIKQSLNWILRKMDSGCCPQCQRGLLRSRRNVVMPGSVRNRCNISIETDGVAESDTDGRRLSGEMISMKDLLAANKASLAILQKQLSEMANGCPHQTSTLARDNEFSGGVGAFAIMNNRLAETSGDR
Kind of assay: KCNK13 antagonist activity, thallium flux FLIPR assay in HEK 293 cells stably expressing human KCNK13. The assay is classed as cell-based. To be noted: HEK 293 cells stably expressing human KCNK13, Tl+ sensitive dye, compound 15 min before thallium sulfate, ten point curves; read-out: hKCNK13 IC50. The procedure: 4. Biological Efficacy of Compounds of the Invention
KCNK13 antagonist activity was determined by measuring changes in intracellular Thallium (Tl^+) concentrations using a Tl^+ sensitive fluorescent dye. The changes in fluorescent signal were monitored by Fluorescent Imaging Plate Reader (FLIPR™) technology available from Molecular Devices, LLC, US. KCNK13 mediated increases in intracellular Tl^+ concentration were readily detected by addition of a thallium sulfate Stimulus. 24 hours prior to the assay, human embryonic kidney 293 cells (HEK 293 cells) stably expressing human KCNK13 were seeded in cell culture medium in PDL coated black, clear-bottom 384-well plates (commercially available from Corning Inc., 356663) and grown overnight at 37° C., […]. On the day of the assay, cell culture media was removed and cells were loaded with potassium dye (commercially sold by Molecular Devices, LLC, US, R8222) for 1 hour at room temperature in the dark. Test compounds (at 10 point half log concentration response curves from 100 µM) were added to cells for 15 minutes prior to the addition of thallium sulfate to all wells. The IC50 values were determined from ten point concentration response curves. Curves were generated using the average of two wells for each data point.

For `COc1ncc(Cl)cc1C(=O)N(C)C(C)c1ccc(F)cc1C#N` (single isomer, unassigned) [Example 67, 5-chloro-N-(1-(2-cyano-4-fluorophenyl)ethyl)-2-methoxy-N-methylnicotinamide], the IC50 was no more than 500 nM. Under `COc1ncc(F)cc1C(=O)N(C)C(C)c1ccc(F)cc1F` (single isomer, unassigned) [Example 68, N-(1-(2,4-difluorophenyl)ethyl)-5-fluoro-2-methoxy-N-methylnicotinamide] stands no more than 5000 nM; under `COc1ncc(F)cc1C(=O)N(C)C(C)c1ccc(F)cc1F` (single isomer, unassigned) [Example 69, N-(1-(2,4-difluorophenyl)ethyl)-5-fluoro-2-methoxy-N-methylnicotinamide], no more than 200 nM. As to `CC(c1ccccc1F)N(C)C(=O)c1cc(F)cnc1OC(F)F` (single isomer, unassigned) [Example 70, 2-(difluoromethoxy)-5-fluoro-N-(1-(2-fluorophenyl)ethyl)-N-methylnicotinamide], the concentration for half-maximal inhibition (IC50) is no more than 200 nM.

Turning to `CC(c1ccccc1F)N(C)C(=O)c1cc(F)cnc1OC(F)F` (single isomer, unassigned) [Example 71, 2-(difluoromethoxy)-5-fluoro-N-(1-(2-fluorophenyl)ethyl)-N-methylnicotinamide], the IC50 is no more than 100 nM. Under `CC(c1cccc(F)c1)N(C)C(=O)c1cc(Cl)cnc1OC(F)F` (single isomer, unassigned) [Example 86, 5-chloro-2-(difluoromethoxy)-N-(1-(3-fluorophenyl)ethyl)-N-methylnicotinamide] stands no more than 100 nM; under `CC(c1cccc(F)c1)N(C)C(=O)c1cc(Cl)cnc1OC(F)F` (single isomer, unassigned) [Example 87, 5-chloro-2-(difluoromethoxy)-N-(1-(3-fluorophenyl)ethyl)-N-methylnicotinamide], no more than 200 nM. Consider `CC(c1cccc(F)c1)N(C)C(=O)c1cc(F)cnc1OC(F)F` (single isomer, unassigned) [Example 88, 2-(difluoromethoxy)-5-fluoro-N-(1-(3-fluorophenyl)ethyl)-N-methylnicotinamide], for which the concentration for half-maximal inhibition (IC50) is no more than 100 nM. With `CC(c1cccc(F)c1)N(C)C(=O)c1cc(F)cnc1OC(F)F` (single isomer, unassigned) [Example 89, 2-(difluoromethoxy)-5-fluoro-N-(1-(3-fluorophenyl)ethyl)-N-methylnicotinamide], the half-inhibitory concentration (IC50) was no more than 200 nM.

For the compound `COc1ncc(Cl)cc1C(=O)N(C)Cc1ccccc1` [Example 1, N-benzyl-5-chloro-2-methoxy-N-methylnicotinamide], the IC50 is no more than 100 nM. With `COc1ncc(Cl)cc1C(=O)N(C)C1CCc2ccc(C#N)cc21` (centres unmarked) [Example 2, 5-chloro-N-(6-cyano-2,3-dihydro-1H-inden-1-yl)-2-methoxy-N-methylnicotinamide] the figure was no more than 1000 nM. Under `COc1ncc(Cl)cc1C(=O)N(C)C1CCc2cccc(C#N)c21` (centres unmarked) [Example 3, 5-chloro-N-(7-cyano-2,3-dihydro-1H-inden-1-yl)-2-methoxy-N-methylnicotinamide] stands no more than 500 nM; under `COc1ncc(F)cc1C(=O)N1CCCCC1c1cccc(F)c1` (centres unmarked) [Example 4, (5-fluoro-2-methoxypyridin-3-yl)(2-(3-fluorophenyl)piperidin-1-yl)methanone], no more than 1000 nM; under `COc1nc(C)ccc1C(=O)N(C)Cc1ccc(F)cc1F` [Example 11, N-(2,4-difluorobenzyl)-2-methoxy-N,6-dimethylnicotinamide], no more than 1000 nM. For `COc1ncccc1C(=O)N(C)Cc1cccc(F)c1` [Example 32, N-(3-fluorobenzyl)-2-methoxy-N-methylnicotinamide], the IC50 was no more than 1000 nM.

On to `COc1ncccc1C(=O)N(C)Cc1ccccc1F` [Example 33, N-(2-fluorobenzyl)-2-methoxy-N-methylnicotinamide], for which the half-inhibitory concentration (IC50) is no more than 500 nM. Turning to `COc1ncc(F)cc1C(=O)N(C)C1(c2cccc(F)c2)CC1` [Example 34, 5-fluoro-N-(1-(3-fluorophenyl)cyclopropyl)-2-methoxy-N-methylnicotinamide], the IC50 is no more than 500 nM. As to `COc1ncc(F)cc1C(=O)N(C)C1COc2ccc(F)cc21` (centres unmarked) [Example 35, 5-fluoro-N-(5-fluoro-2,3-dihydrobenzofuran-3-yl)-2-methoxy-N-methylnicotinamide], the IC50 was no more than 500 nM. Under `COc1ncc(F)cc1C(=O)N(C)Cc1ccccc1C#N` [Example 36, N-(2-cyanobenzyl)-5-fluoro-2-methoxy-N-methylnicotinamide] stands no more than 500 nM.

For the compound `COc1ncc(F)cc1C(=O)N(C)Cc1ccccc1F` [Example 37, 5-fluoro-N-(2-fluorobenzyl)-2-methoxy-N-methylnicotinamide], the IC50 is no more than 200 nM. Under `COc1ncc(F)cc1C(=O)N(C)Cc1cccc(F)c1F` [Example 38, N-(2,3-difluorobenzyl)-5-fluoro-2-methoxy-N-methylnicotinamide] stands no more than 500 nM; under `COc1ncc(Cl)cc1C(=O)N(C)Cc1cccc(F)c1F` [Example 40, 5-chloro-N-(2,3-difluorobenzyl)-2-methoxy-N-methylnicotinamide], no more than 200 nM; under `COc1ncc(Cl)cc1C(=O)N(C)Cc1cc(F)cc(F)c1` [Example 41, 5-chloro-N-(3,5-difluorobenzyl)-2-methoxy-N-methylnicotinamide], no more than 200 nM. On to `COc1ncc(F)cc1C(=O)N(C)C1COc2cc(F)ccc21` (centres unmarked) [Example 42, 5-fluoro-N-(6-fluoro-2,3-dihydrobenzofuran-3-yl)-2-methoxy-N-methylnicotinamide], for which the IC50 is no more than 1000 nM. As for `COc1ncc(Cl)cc1C(=O)N(C)C1CCOc2cc(F)ccc21` (centres unmarked) [Example 43, 5-chloro-N-(7-fluorochroman-4-yl)-2-methoxy-N-methylnicotinamide], the half-maximal inhibitory concentration (IC50) was no more than 1000 nM. As to `COc1ncc(Cl)cc1C(=O)N(C)Cc1cc(F)cc(Cl)c1` [Example 44, 5-chloro-N-(3-chloro-5-fluorobenzyl)-2-methoxy-N-methylnicotinamide], the IC50 was no more than 200 nM.

For `CCN(Cc1ccccc1)C(=O)c1cc(Cl)cnc1OC` [Example 47, N-benzyl-5-chloro-N-ethyl-2-methoxynicotinamide], the 50% inhibitory concentration (IC50) was no more than 1000 nM. With `CCN(Cc1ccccc1F)C(=O)c1cc(Cl)cnc1OC` [Example 48, 5-chloro-N-ethyl-N-(2-fluorobenzyl)-2-methoxynicotinamide] the figure was no more than 500 nM; with `CCN(Cc1cccc(F)c1)C(=O)c1cc(Cl)cnc1OC` [Example 49, 5-chloro-N-ethyl-N-(3-fluorobenzyl)-2-methoxynicotinamide], no more than 1000 nM; with `COc1ncc(F)cc1C(=O)N(C)Cc1cccc(F)c1` [Example 50, 5-fluoro-N-(3-fluorobenzyl)-2-methoxy-N-methylnicotinamide], no more than 200 nM. For `COc1ncc(C)cc1S(=O)(=O)N1CCc2ccccc2C1` [Example 51, 2-((2-methoxy-5-methylpyridin-3-yl)sulfonyl)-1,2,3,4-tetrahydroisoquinoline], the concentration for half-maximal inhibition (IC50) is no more than 200 nM.

With `COc1ncc(Cl)cc1S(=O)(=O)N1CCc2ccccc2C1` [Example 52, 2-((5-chloro-2-methoxypyridin-3-yl)sulfonyl)-1,2,3,4-tetrahydroisoquinoline], the IC50 was no more than 200 nM.

`COc1ncc(C)cc1S(=O)(=O)N1CCOc2ccc(F)cc2C1` [Example 53, 7-fluoro-4-((2-methoxy-5-methylpyridin-3-yl)sulfonyl)-2,3,4,5-tetrahydrobenzo[f][1,4]oxazepine]: the half-inhibitory concentration (IC50) was no more than 500 nM. Under `COc1ncc(Cl)cc1S(=O)(=O)N1CCOc2ccc(F)cc2C1` [Example 54, 4-((5-chloro-2-methoxypyridin-3-yl)sulfonyl)-7-fluoro-2,3,4,5-tetrahydrobenzo[f][1,4]oxazepine] stands no more than 500 nM.

As to `COc1ncccc1S(=O)(=O)N1CCOc2ccc(F)cc2C1` [Example 55, 7-fluoro-4-((2-methoxypyridin-3-yl)sulfonyl)-2,3,4,5-tetrahydrobenzo[f][1,4]oxazepine], the IC50 is no more than 500 nM. As to `COC(=O)c1ccc(F)cc1CN(C)C(=O)c1cc(F)cnc1OC` [Example 56, methyl 4-fluoro-2-((5-fluoro-2-methoxy-N-methylnicotinamido)methyl)benzoate], the half-inhibitory concentration (IC50) is no more than 500 nM. Under `COc1ncc(Cl)cc1C(=O)N(C)Cc1ccc(F)cc1C(F)(F)F` [Example 57, 5-chloro-N-(4-fluoro-2-(trifluoromethyl)benzyl)-2-methoxy-N-methylnicotinamide] stands no more than 1000 nM; under `COc1ncc(Cl)cc1C(=O)N(C)Cc1ccc(F)cc1C#N` [Example 58, 5-chloro-N-(2-cyano-4-fluorobenzyl)-2-methoxy-N-methylnicotinamide], no more than 200 nM.
